US20120083473A1, “TREATMENT OF CONDITIONS BY TOLL-LIKE RECEPTOR MODULATORS” (priority 2010, published 2012)

Experiments:
[1] = tested on: Peritoneal macrophages (PEC); assay: Tolerance and M1/M2 gene expression in murine peritoneal macrophages (Real-Time PCR); type: cell-based, mice
Procedure: Peritoneal macrophages (PEC) isolated from C57 black mice are used to test the tolerogenic effects of compound 2 of Table 2. The effects of this TLR7 ligand are analyzed in terms of gene expression (Real-Time PCR) of both pro-inflammatory (e.g. TNF-alpha, IL-1, IL-6) and anti-inflammatory (e.g. IL-10, TGF-beta) cytokines. Further, additional markers of M1 (e.g. iNOS, IL-12, IFN-beta, CXCL9, CXCL10) versus M2 (e.g. arginase I, Ym1, Fizz1, CCL17, CCL22, dectin 1, MGL) macrophage polarization is determined, in order to evaluate the polarizing activities of this compound. This analysis is instrumental to the understanding of mechanisms driving the tolerogenic action of compound 2 of Table 2, as an M2 polarized response is considered to be an alternative anti-inflammatory and “tolerogenic” macrophage program.
With respect to macrophage tolerance, cells are treated with two doses of compound 2 of Table 2 (1 microM and 10 microM) up to 20 hours and then re-challenged with agonists/ligands of different TLRs (TLR2, TLR4, TLR5, TLR9, TLR7, etc.), including the TLR7 unconjugated ligand 1V209 (free pharmacophore) at a concentration of 10 microM.
In a first run of experiments, the tolerogenic and polarizing ability of compound 2 of Table 2, which also is referred to hereafter as “TMX,” was evaluated. To induce tolerance, PEC were pre-treated for 20 hours with 10 μM or 1 μM TMX. Next, total RNA from control (M/M), TMX activated (M/T), 1V209 (free pharmacophore)-activated (M/I), tolerant (T/M) and tolerant PEC re-challenged with TMX (T/T) or with 1V209 (free pharmacophore) (T/I), were analyzed by RT PCR for the expression of representative M1 and M2 genes. […] However, most of the M1 genes transcripts were still induced (FIG. 1C, D).
Cell Culture and treatments. Peritoneal exudate cells (PEC) were harvested from mice injected with 1 ml of 3% (w/v) thioglycollate medium (Difco, Detroit, Mich.) 4 days prior to isolation. PECs were incubated in RPMI 1640 medium, containing 10% fetal bovine serum, 2 mM glutamine and 100 U/ml of penicillin-streptomycin. The concentration for the different treatments were as follows: LPS (100 ng/ml) (Lipopolysaccharide from Salmonella Abortus Equi S-form, Alexis), CpG (1 μg/ml), Pam3CSK (2 μg/ml), Poly I:C (10 μg/ml), Loxorubine (100 μM), flagellin (100 ng/ml) IL-1β (20 ng/ml), TNF (20 ng/ml), IL-10 (20 ng/ml) (Peprotech), IFNγ (200 U/ml) (Peprotech). To induce TMX tolerance, cells were incubated in the presence of TMX (10 μM or 1 μM) for 20 hrs, washed and maintained in RPMI medium for 2 hrs and then re-challenged with TMX (10 μM) for 4 hrs. To induce TMX-tolerization (T/M) cells were treated with TMX for 20 hrs, washed and then maintained in medium for additional 6 hours, without TMX re-challenge. To induce M1-activation, cells were incubated in medium for 20 hrs, washed, left in medium for 2 hrs and finally stimulated with TMX (10 μM) for 4 hrs. Control cells (M/M) were cultured in medium for the entire period of the experiment. For gene expression analysis, total RNA was extracted from TMX treated and untreated cells with trizol (Invitrogen), according to the manufacturer's instructions. To analyze cytokines and chemokines production supernatants were collected 24 hrs after the second challenge with TMX.
(§1) Real-Time PCR. Total RNA was purified as previously described. Briefly, reverse transcription from 1 μg of RNA was performed using cDNA Archive kit (Applied Biosystem, NJ, USA). Real time PCR was performed using Power Syber Green PCR Master Mix (Applied Biosystem, NJ, USA) and detected by 7900HT Fast Real-Time System (Applied Biosystem, NJ, USA). Data were processed using the SDS2.2.2 software (Applied Biosystem, NJ, USA). Results were normalized to the expression of the housekeeping gene β-actin and then expressed as folds of upregulation, with respect to the control cell population.

[2] = Intravenous acute toxicity in mice; type: in vivo; settings: i.v.
[3] = tested on: human monocytes (Mo); assay: M1/M2 gene expression in human monocytes (Real-Time PCR); type: cell-based
Procedure: To evaluate the effects of TMX on human cell activation, monocytes were isolated from buffy coats obtained from four different healthy donors. With respect to macrophage tolerance, cells were treated with Compound 2 (10 microM) up to 20 hours and then re-challenged with agonists/ligands of different TLRs (TLR2, TLR4, TLR5, TLR9, TLR7, etc. . . . ), including the TLR7 unconjugated ligand 1V209 (free pharmacophore) at a concentration of 10 microM.
Cell Culture and treatments. Monocytes (Mo) were obtained from buffycoats collected from healthy donors as previously described (Porta C et al, PNAS 2009). Cells were incubated in RPMI 1640 medium, containing 10% fetal bovine serum, 2 mM glutamine and 100 U/ml of penicillin-streptomycin. The concentrations for the different treatments were as follows: LPS (100 ng/ml) (Lipopolysaccharide from Salmonella Abortus Equi S-form, Alexis), CpG (1 microg/ml), Pam3CSK (2 microg/ml), Poly I:C (10 microg/ml), Loxorubine (100 microM), flagellin (100 ng/ml). To induce TMX tolerance, cells were incubated in the presence of TMX (10 microM) for 20 hrs, washed and maintained in RPMI medium for 2 hrs and then re-challenged with TMX (10 microM) for 4 hrs. To induce TMX-tolerization (T/M) cells were treated with TMX for 20 hrs, washed and then maintained in medium for additional 6 hours, without TMX re-challenge. To induce M1-activation cells were incubated in medium for 20 hrs, washed, left in medium for 2 hrs and finally stimulated with TMX (10 microM) for 4 hrs. Control cells (M/M) were cultured in medium for the entire period of the experiment. For gene expression analysis, total RNA was extracted from TMX treated and untreated cells with trizol (Invitrogen), according to the manufacturer's instructions. To analyze cytokines and chemokines production supernatants were collected 24 hrs after the second challenge with TMX.
as §1, with “from 1 microgram of RNA” for “from 1 μg of RNA”, “performed using a cDNA Archive” for “performed using cDNA Archive”, “housekeeping gene 8-actin and then” for “housekeeping gene β-actin and then”

[4] = PEC pre-treated 20 hours with 10 μM TMX, RT PCR

In the case of COCCOc1nc(N)c2nc(O)n(Cc3ccc(C(=O)NCCOCCOCCOCCOCCOCCOCCn4cc(CCC(=O)O)nn4)cc3)c2n1 [Compound 2], the M2 gene expression ([1]; 1 μM TMX pre-treatment, except for IL-10) is reported as “did not enhance”, the “M1 (TNF-alpha, IL-12, IFN-beta, CXCL10) gene expression in state of tolerance” value [1, 4] is reported as “low” and the “selected M2 genes (IL-10, TGFβ, Arg I, CCL17, CCL22) in state of tolerance” value [1, 4] is reported as “high levels”. For the same compound, the “M2 markers Ym1, Fizz1, MGL2 gene transcripts” value ([1]; PEC, TMX) was “No significant modulation”, the induction of tolerance ([1]; pre-treatment with 1 μM TMX, except for IL-12p40) was “unable to induce tolerance” and the macrophage activation ([1]; prolonged exposure of PEC to high concentration of TMX) was “M2 skewed activation”. For the same compound, the “dose up to which no toxic clinical signs were produced” value [2] was “up to 1000 mg/kg”, the “IL-10 expression in tolerant Mo as compared to activated Mo” value [3] was “inhibited” and the “M1 markers CXCL9, IFNbeta, iNOS and M2 cytokine TGFbeta” value [3] was “No significant modulation”. The “tolerizing and polarizing activity on human cells as compared to murine cells” value [3] was “partial tolerizing and polarizing activity”, the “M1 (TNF-alpha, IL-1-beta IL-6, IL-12, CXCL10) gene expression in state of tolerance” value ([3]; 10 microM, 20 hours, Mo from 3 out of 4 healthy donors) was “low” and the “M1 markers TNF-alpha, IL12-p40 IL-1 IL6 CXCL10 and IFNbeta” value ([3]; TMX pretreatment) was “down-regulated”. The “M2 genes CCL17, CCL18, CCL22 in tolerant versus activated Mo” value ([3]; few exceptions (CCL18, CCL22 in single donors)) was “further induced” and the “M2 signature chemokines CCL17, CCL18 and CCL22” value ([3]; presence of TMX compound) was “increased”.
